# Key:
# [1] = tested on: PDZ protein (GST-PDZ fusion); assay: G' assay (10 uM PL peptide), results of TABLE 7 and TABLE 12; type: binding
# Procedure, shortened: (§1)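 Biotinylated PL peptides at 10 uM (vs 20 uM in G^0 assay) bound to GST-PDZ fusions; PDZ protein at 5 ug/ml unless another concentration listed. Bound peptide read as A450 nm, classified 0–5 (0 = A450 0; 5 = A450 >4 repeated).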
# [2] = target: T1, PDZ protein (GST-PDZ fusion) (Homo sapiens, UniProt Q5TCQ9); assay: as above; type: binding
# T1 construct: made in house; host or cells: E. coli (DH5alpha, BL21 or JM109)
# T1 sequence (Q5TCQ9 1-1481): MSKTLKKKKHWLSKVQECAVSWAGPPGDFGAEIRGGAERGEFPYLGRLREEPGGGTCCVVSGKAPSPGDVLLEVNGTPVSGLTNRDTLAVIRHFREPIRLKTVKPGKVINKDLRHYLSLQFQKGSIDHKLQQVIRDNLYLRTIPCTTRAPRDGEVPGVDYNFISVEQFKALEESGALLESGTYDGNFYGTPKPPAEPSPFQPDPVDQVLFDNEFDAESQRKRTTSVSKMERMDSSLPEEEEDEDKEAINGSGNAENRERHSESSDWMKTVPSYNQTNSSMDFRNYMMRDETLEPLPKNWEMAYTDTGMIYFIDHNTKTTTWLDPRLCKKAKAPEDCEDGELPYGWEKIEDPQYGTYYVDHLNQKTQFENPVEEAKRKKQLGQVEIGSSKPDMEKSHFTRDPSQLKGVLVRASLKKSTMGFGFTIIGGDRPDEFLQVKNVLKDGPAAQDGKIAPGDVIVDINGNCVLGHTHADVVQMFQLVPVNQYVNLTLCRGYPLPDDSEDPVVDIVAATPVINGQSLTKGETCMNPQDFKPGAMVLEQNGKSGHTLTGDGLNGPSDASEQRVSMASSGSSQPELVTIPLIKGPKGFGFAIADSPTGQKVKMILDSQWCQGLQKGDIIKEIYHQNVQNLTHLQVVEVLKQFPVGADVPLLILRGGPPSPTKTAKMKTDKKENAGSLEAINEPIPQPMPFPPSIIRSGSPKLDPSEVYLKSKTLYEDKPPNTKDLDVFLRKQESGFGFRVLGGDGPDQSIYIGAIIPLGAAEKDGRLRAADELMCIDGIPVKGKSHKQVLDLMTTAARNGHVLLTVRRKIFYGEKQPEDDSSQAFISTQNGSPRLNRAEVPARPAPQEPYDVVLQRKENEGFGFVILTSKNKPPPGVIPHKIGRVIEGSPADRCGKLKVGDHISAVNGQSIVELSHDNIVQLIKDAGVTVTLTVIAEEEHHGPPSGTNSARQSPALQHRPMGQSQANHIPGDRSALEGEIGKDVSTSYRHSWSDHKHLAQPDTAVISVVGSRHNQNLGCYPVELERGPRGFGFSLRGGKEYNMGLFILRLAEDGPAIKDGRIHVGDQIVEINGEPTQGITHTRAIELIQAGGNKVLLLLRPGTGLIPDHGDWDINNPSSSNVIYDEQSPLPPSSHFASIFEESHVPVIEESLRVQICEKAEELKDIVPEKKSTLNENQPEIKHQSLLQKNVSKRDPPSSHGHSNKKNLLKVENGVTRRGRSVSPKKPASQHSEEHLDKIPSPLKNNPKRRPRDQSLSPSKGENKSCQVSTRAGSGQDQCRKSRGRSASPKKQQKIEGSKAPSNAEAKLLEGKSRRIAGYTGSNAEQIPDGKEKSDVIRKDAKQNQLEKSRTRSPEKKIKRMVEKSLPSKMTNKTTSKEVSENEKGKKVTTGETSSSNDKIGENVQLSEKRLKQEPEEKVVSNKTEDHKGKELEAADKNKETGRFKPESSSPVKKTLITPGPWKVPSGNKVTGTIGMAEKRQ
# Procedure, shortened: as §1
compound,measurement,setting,value
CC[C@H](C)[C@H](NC(=O)[C@H](CCCCN)NC(=O)[C@@H](NC(=O)[C@H](CO)NC(=O)[C@@H]1CCCN1C(=O)[C@H](Cc1ccccc1)NC(=O)[C@@H](NC(=O)[C@@H](NC(=O)[C@H](CCCNC(=N)N)NC(=O)[C@H](CCC(=O)O)NC(=O)[C@H](CC(C)C)NC(=O)[C@H](CC(C)C)NC(=O)[C@H](CC(C)C)NC(=O)[C@@H](NC(=O)CNC(=O)[C@@H](NC(=O)CCCC[C@@H]1SC[C@@H]2NC(=O)N[C@@H]21)C(C)C)[C@@H](C)O)C(C)C)[C@@H](C)CC)C(C)C)C(=O)N[C@@H](C)C(=O)N[C@H](C(=O)N[C@@H](CC(C)C)C(=O)N[C@H](C(=O)O)C(C)C)[C@@H](C)O [Adenovirus E4 Type9],Classification,"[1]; PDZ BAI-1, PDZ Domain 2, Protein Optimal Conc 0.3",5 (A450 nm of 4 more than 2× repeated)
same,Classification,"[1]; PDZ BAI-1, PDZ Domain 3, Protein Optimal Conc 0.5",5 (A450 nm of 4 more than 2× repeated)
same,Classification,"[1]; PDZ BAI-1, PDZ Domain 4, Protein Optimal Conc 0.3",5 (A450 nm of 4 more than 2× repeated)
same,Classification,"[1]; PDZ BAI-1, PDZ Domain 6, PL peptide 10 uM",1 (A450 nm 0-1)
same,Classification,"[1]; PDZ Connector Enhancer, PDZ Domain 1, Protein Optimal Conc 5",3 (A450 nm 2-3)
same,Classification,"[1]; PDZ FLJ 00011, PDZ Domain 1, PL peptide 10 uM",1 (A450 nm 0-1)
same,Classification,"[1]; PDZ HEMBA 1003117, PDZ Domain 1, Protein Optimal Conc 5",3 (A450 nm 2-3)
same,Classification,"[2]; PDZ KIAA1634, PDZ Domain 1, PL peptide 10 uM",5 (A450 nm of 4 more than 2× repeated)
same,Classification,"[2]; PDZ KIAA1634, PDZ Domain 2, Protein Optimal Conc 5",5 (A450 nm of 4 more than 2× repeated)
same,Classification,"[2]; PDZ KIAA1634, PDZ Domain 4, Protein Optimal Conc 5",4 (A450 nm 3-4)

# From patent US20050282743A1, “Molecular interactions in cells” (Arbor Vita Corporation, priority 2001, published 2005)
